According to the NIST ThermoML archive (doi:10.1016/j.jct.2019.03.040):
± gives the expanded uncertainty stated by the source.

Experiments:
[1] = Liquid; for thermal diffusivity: 101.33 kPa, Laser flash apparatus
[2] = molar heat capacity at constant pressure; settings: 101.33 kPa, Liquid, Small sample (50 mg) DSC

## CCCCOC(=O)CCC(C)=O [butyl levulinate]
[1]; 303.15 K
  thermal diffusivity: 7.77e-08 ± 4.2e-09 m2/s
[1]; 313.15 K
  thermal diffusivity: 7.68e-08 ± 4.1e-09 m2/s
[1]; 323.15 K
  thermal diffusivity: 7.57e-08 ± 4.1e-09 m2/s
[1]; 333.15 K
  thermal diffusivity: 7.48e-08 ± 4e-09 m2/s
[1]; 343.15 K
  thermal diffusivity: 7.37e-08 ± 4e-09 m2/s
[1]; 353.15 K
  thermal diffusivity: 7.26e-08 ± 3.9e-09 m2/s
[1]; 363.15 K
  thermal diffusivity: 7.15e-08 ± 3.8e-09 m2/s
[1]; 373.15 K
  thermal diffusivity: 7.06e-08 ± 3.8e-09 m2/s
[1]; Resistive pulse heating
  Critical pressure: 2410 ± 80 kPa
  Critical temperature: 692 ± 7 K
[2]; 302.66 K
  molar heat capacity at constant pressure: 336.87 ± 8.3 J/K/mol
[2]; 303.16 K
  molar heat capacity at constant pressure: 337.38 ± 8.3 J/K/mol
[2]; 303.66 K
  molar heat capacity at constant pressure: 338.59 ± 8.3 J/K/mol
[2]; 304.16 K
  molar heat capacity at constant pressure: 338.42 ± 8.3 J/K/mol
[2]; 304.66 K
  molar heat capacity at constant pressure: 337.73 ± 8.3 J/K/mol
[2]; 305.16 K
  molar heat capacity at constant pressure: 337.38 ± 8.3 J/K/mol
[2]; 305.66 K
  molar heat capacity at constant pressure: 337.73 ± 8.3 J/K/mol
[2]; 306.16 K
  molar heat capacity at constant pressure: 337.55 ± 8.3 J/K/mol
[2]; 306.66 K
  molar heat capacity at constant pressure: 338.42 ± 8.3 J/K/mol
[2]; 307.16 K
  molar heat capacity at constant pressure: 339.28 ± 8.3 J/K/mol
[2]; 307.66 K
  molar heat capacity at constant pressure: 338.76 ± 8.3 J/K/mol
[2]; 308.16 K
  molar heat capacity at constant pressure: 337.9 ± 8.3 J/K/mol
[2]; 308.66 K
  molar heat capacity at constant pressure: 338.24 ± 8.3 J/K/mol
[2]; 309.16 K
  molar heat capacity at constant pressure: 338.42 ± 8.3 J/K/mol
[2]; 309.66 K
  molar heat capacity at constant pressure: 339.1 ± 8.3 J/K/mol
[2]; 310.16 K
  molar heat capacity at constant pressure: 338.93 ± 8.3 J/K/mol
[2]; 310.66 K
  molar heat capacity at constant pressure: 340.14 ± 8.3 J/K/mol
[2]; 311.16 K
  molar heat capacity at constant pressure: 338.76 ± 8.3 J/K/mol
[2]; 311.66 K
  molar heat capacity at constant pressure: 338.59 ± 8.3 J/K/mol
[2]; 312.16 K
  molar heat capacity at constant pressure: 338.76 ± 8.3 J/K/mol
[2]; 312.66 K
  molar heat capacity at constant pressure: 338.76 ± 8.3 J/K/mol
[2]; 313.16 K
  molar heat capacity at constant pressure: 338.42 ± 8.3 J/K/mol
[2]; 313.66 K
  molar heat capacity at constant pressure: 338.76 ± 8.3 J/K/mol
[2]; 314.16 K
  molar heat capacity at constant pressure: 339.97 ± 8.3 J/K/mol
[2]; 314.66 K
  molar heat capacity at constant pressure: 339.79 ± 8.3 J/K/mol
[2]; 315.16 K
  molar heat capacity at constant pressure: 339.97 ± 8.3 J/K/mol
[2]; 315.66 K
  molar heat capacity at constant pressure: 339.62 ± 8.3 J/K/mol
[2]; 316.16 K
  molar heat capacity at constant pressure: 340.31 ± 8.3 J/K/mol
[2]; 316.66 K
  molar heat capacity at constant pressure: 340.14 ± 8.3 J/K/mol
[2]; 317.16 K
  molar heat capacity at constant pressure: 340.65 ± 8.3 J/K/mol
[2]; 317.66 K
  molar heat capacity at constant pressure: 340.65 ± 8.3 J/K/mol
[2]; 318.16 K
  molar heat capacity at constant pressure: 341.17 ± 8.4 J/K/mol
[2]; 318.66 K
  molar heat capacity at constant pressure: 341 ± 8.4 J/K/mol
[2]; 319.16 K
  molar heat capacity at constant pressure: 341.17 ± 8.4 J/K/mol
[2]; 319.66 K
  molar heat capacity at constant pressure: 341 ± 8.4 J/K/mol
[2]; 320.16 K
  molar heat capacity at constant pressure: 340.14 ± 8.3 J/K/mol
[2]; 320.66 K
  molar heat capacity at constant pressure: 341.69 ± 8.4 J/K/mol
[2]; 321.16 K
  molar heat capacity at constant pressure: 341.69 ± 8.4 J/K/mol
[2]; 321.66 K
  molar heat capacity at constant pressure: 341 ± 8.4 J/K/mol
[2]; 322.16 K
  molar heat capacity at constant pressure: 341 ± 8.4 J/K/mol
[2]; 322.66 K
  molar heat capacity at constant pressure: 341.69 ± 8.4 J/K/mol
[2]; 323.16 K
  molar heat capacity at constant pressure: 342.03 ± 8.4 J/K/mol
[2]; 323.66 K
  molar heat capacity at constant pressure: 342.38 ± 8.4 J/K/mol
[2]; 324.16 K
  molar heat capacity at constant pressure: 341.69 ± 8.4 J/K/mol
[2]; 324.66 K
  molar heat capacity at constant pressure: 342.89 ± 8.4 J/K/mol
[2]; 325.16 K
  molar heat capacity at constant pressure: 342.2 ± 8.4 J/K/mol
[2]; 325.66 K
  molar heat capacity at constant pressure: 341.52 ± 8.4 J/K/mol
[2]; 326.16 K
  molar heat capacity at constant pressure: 342.2 ± 8.4 J/K/mol
[2]; 326.66 K
  molar heat capacity at constant pressure: 343.24 ± 8.4 J/K/mol
[2]; 327.16 K
  molar heat capacity at constant pressure: 342.89 ± 8.4 J/K/mol
[2]; 327.66 K
  molar heat capacity at constant pressure: 343.07 ± 8.4 J/K/mol
[2]; 328.16 K
  molar heat capacity at constant pressure: 343.41 ± 8.4 J/K/mol
[2]; 328.66 K
  molar heat capacity at constant pressure: 341.34 ± 8.4 J/K/mol
[2]; 329.16 K
  molar heat capacity at constant pressure: 341.86 ± 8.4 J/K/mol
[2]; 329.66 K
  molar heat capacity at constant pressure: 342.38 ± 8.4 J/K/mol
[2]; 330.16 K
  molar heat capacity at constant pressure: 342.89 ± 8.4 J/K/mol
[2]; 330.66 K
  molar heat capacity at constant pressure: 342.89 ± 8.4 J/K/mol
[2]; 331.16 K
  molar heat capacity at constant pressure: 343.07 ± 8.4 J/K/mol
[2]; 331.66 K
  molar heat capacity at constant pressure: 342.38 ± 8.4 J/K/mol
[2]; 332.16 K
  molar heat capacity at constant pressure: 342.72 ± 8.4 J/K/mol
[2]; 332.66 K
  molar heat capacity at constant pressure: 343.58 ± 8.4 J/K/mol
[2]; 333.16 K
  molar heat capacity at constant pressure: 343.24 ± 8.4 J/K/mol
[2]; 333.66 K
  molar heat capacity at constant pressure: 344.27 ± 8.4 J/K/mol
[2]; 334.16 K
  molar heat capacity at constant pressure: 345.13 ± 8.4 J/K/mol
[2]; 334.66 K
  molar heat capacity at constant pressure: 344.44 ± 8.4 J/K/mol
[2]; 335.16 K
  molar heat capacity at constant pressure: 345.48 ± 8.4 J/K/mol
[2]; 335.66 K
  molar heat capacity at constant pressure: 344.79 ± 8.4 J/K/mol
